Values of other authors, collected in patent US8546362B2, “Medicinal cream made using neomycin sulphate, betamethasone valerate, and chitosan, and a process to make the same” (priority 2009, dated 2013).
Like-named read-outs stand apart in the source and are kept apart here.

Experiments:
Escherichia coli = conditions: in vitro
Haemophilus influenzae = conditions: in vitro
Moraxella lacunata = conditions: in vitro
[1] = tested on: indole-positive and indole-negative Proteus; conditions: in vitro
Staphylococcus aureus = conditions: in vitro
S. epidermidis = conditions: in vitro
Serratia = conditions: in vitro
[2] = from the peritoneum, draining sinuses, wounds, or surgical sites

CCCCC(=O)O[C@]1(C(=O)CO)[C@@H](C)C[C@H]2[C@@H]3CCC4=CC(=O)C=C[C@]4(C)[C@@]3(F)[C@@H](O)C[C@@]21C [Betamethasone Valerate, 9-Fluoro-11β, 17,21-trihydroxy-16β-methylpregna-1,4-diene-3,20-dione 17-valerate]
Solubility (in acetone): freely soluble
Solubility (in alcohol): soluble
Solubility (in benzene): slightly soluble
Solubility (in chloroform): freely soluble
Solubility (in ether): slightly soluble
Solubility (in water): practically insoluble

NC[C@@H]1O[C@H](O[C@H]2[C@@H](O)[C@H](O[C@@H]3[C@@H](O)[C@H](N)C[C@H](N)[C@H]3O[C@H]3O[C@H](CN)[C@@H](O)[C@H](O)[C@H]3N)O[C@@H]2CO)[C@H](N)[C@@H](O)[C@@H]1O [Neomycin]
Concentrations that inhibit most susceptible strains (Escherichia coli): 1 to 12.5 µg/mL
Concentrations that inhibit most susceptible strains (Haemophilus influenzae): 1 to 12.5 µg/mL
Concentrations that inhibit most susceptible strains (Moraxella lacunata): 1 to 12.5 µg/mL
Concentrations that inhibit most susceptible strains [1]: 1 to 12.5 µg/mL
Concentrations that inhibit most susceptible strains (Staphylococcus aureus): 1 to 12.5 µg/mL
Concentrations that inhibit most susceptible strains (S. epidermidis): 1 to 12.5 µg/mL
Concentrations that inhibit most susceptible strains (Serratia): 1 to 12.5 µg/mL
Antibacterial activity (streptococci): only minimally active
Antibacterial activity (Pseudomonas aeruginosa): generally resistant
Antimicrobial activity (fungi): inactive
Antimicrobial activity (viruses): inactive
Antimicrobial activity (most anaerobic bacteria): inactive
Solubility (in alcohol): very slightly soluble
Solubility (in water): freely soluble
Absorption [2]: rapidly absorbed
